Four compounds from ChEMBL document CHEMBL1147332, “Screening of marine invertebrates for the presence of ergosterol-sensitive antifungal compounds” (1993) can be followed below.

Active and inactive are the calls of the source. The rule behind the calls is not given here.

For assay [1], the system named is Candida albicans. In words: Antifungal activity against Candida albicans at 1 ug after 16 to 19 hrs by disk diffusion assay in presence of increasing concentration of ergosterol. In kind it is functional, organism-based.
Assay [2] relates to Candida albicans. Description: Antifungal activity against Candida albicans at 2 ug after 16 to 19 hrs by disk diffusion assay in presence of 20 ppm ergosterol. The format is functional.
In assay [3] the test system is Candida albicans. In words: Antifungal activity against Candida albicans at <= 1 ug after 16 to 19 hrs by disk diffusion assay. The format is functional, organism-based.
The subject of assay [4] is Candida albicans. In words: Antifungal activity against Candida albicans at 5 ug after 16 to 19 hrs by disk diffusion assay in presence of 120 ppm ergosterol. The format is functional.
For assay [5], the system named is Candida albicans. Description: Antifungal activity against Candida albicans after 16 to 19 hrs by disk diffusion assay. The format is functional, organism-based.
Assay [6] deals with Candida albicans. Description: Antifungal activity against Candida albicans after 16 to 19 hrs by disk diffusion assay in presence of 100 ppm ergosterol. In kind it is functional, organism-based.

Consider `C[C@@H]1[C@H](O)[C@@H](C)/C=C/C=C/C=C/C=C/C=C/C=C/C=C/[C@H](O[C@@H]2O[C@H](C)[C@@H](O)[C@H](N)[C@@H]2O)C[C@@H]2O[C@](O)(C[C@@H](O)C[C@@H](O)[C@H](O)CC[C@@H](O)C[C@@H](O)CC(=O)O[C@H]1C)C[C@H](O)[C@H]2C(=O)O` [AMPHOTERICIN B], for which the result with Candida albicans [1] was Active. Moreover, in the assay with Candida albicans [2], the Activity was found to be 50%.

As for `C/C1=C\[C@H](C)C[C@H](C)OC(=O)C[C@H](c2ccc(O)cc2)NC(=O)[C@@H](Cc2c(Br)[nH]c3ccccc23)N(C)C(=O)[C@H](C)NC(=O)[C@@H](C)C1` [JASPAMIDE], the outcome in the assay on Candida albicans [3] was Active. Moreover, the Activity with Candida albicans [4] worked out at 50%. For the same compound, the outcome with Candida albicans [5] was inactive.

As to `Clc1ccc(COC(Cn2ccnc2)c2ccc(Cl)cc2Cl)c(Cl)c1` (stereo not drawn), in the assay with Candida albicans [6], the outcome was Active.

For `CO[C@H]([C@H](C)/C=C/N(C)C=O)[C@@H](C)C(=O)CC[C@H](C)[C@H](C[C@@H]1OC(=O)C[C@@H](OC(N)=O)C[C@H](C)C[C@H](O)[C@H](C)[C@@H](OC)c2coc(n2)-c2coc(n2)-c2coc(n2)/C=C/C[C@H](OC)[C@H]1C)OC`, the result in the assay on Candida albicans [3] was Active. Further, the outcome with Candida albicans [5] was inactive.
